Results as given in US20180103668A1, “CYCLOHEXANECARBOXYLIC ACIDS FOR SELECTIVE TASTE MASKING” (INTERNATIONAL FLAVORS & FRAGRANCES INC., priority 2015, published 2018).

How the values were obtained:
[1] = Sour taste-masking effect; conditions: 10 ppm in water; scale 0 to 10: 0=total masking, 2=intense masking, 5=moderate masking, 8=weak masking, 10=no masking; same in both lactic acid and citric acid
Procedure: (§1) A series of cyclohexanecarboxylic acid solutions in the following were prepared (10 ppm in water):
Lactic acid solution (0.09% by weight in water) and citric acid solution (0.07% by weight in water) were prepared and used, respectively, to evaluate the sour taste-masking effect of cyclohexanecarboxylic acids, which is expressed using an intensity scale of 0 to 10, where 0=total masking, 2=intense masking, 5=moderate masking, 8=weak masking and 10=no masking.

[2] = Bitter taste-masking effect; conditions: for Intensity Score (bitter taste-masking effect): 10 ppm in water, caffeine 0.07%, scale 0 to 10: 0=total masking, 2=intense masking, 5=moderate masking, 8=weak masking, 10=no masking; for bitter taste-masking effect (in words): 10 ppm, caffeine solution 0.07%
Procedure: as §1
Caffeine solution (0.07% by weight in water) was prepared and used to evaluate the bitter taste-masking effect of cyclohexanecarboxylic acids, which is expressed using an intensity scale of 0 to 10, where 0=total masking, 2=intense masking, 5=moderate masking, 8=weak masking and 10=no masking.

O=C(/C=C/c1ccc(O)c(O)c1)OC1C[C@@](O)(C(=O)O)C[C@@H](OC(=O)/C=C/c2ccc(O)c(O)c2)[C@@H]1O (stereo partly drawn) [Formula V, (1α,3R,4α,5R)-3,5-bis[[3-(3,4-dihydroxyphenyl)-1-oxo-2-propen-1-yl]oxy]-1,4-dihydroxy-cyclohexanecarboxylic acid]
Intensity Score (sour taste-masking effect) [1]: 8
Intensity Score (bitter taste-masking effect) [2]: 3
bitter taste-masking effect (in words) [2]: particularly intense and lasting bitter taste-masking effect

O=C(/C=C/c1ccc(O)c(O)c1)O[C@@H]1[C@H](O)C[C@@](O)(C(=O)O)C[C@H]1OC(=O)/C=C/c1ccc(O)c(O)c1 [Formula IV, (1S,3R,4R,5R)-3,4-bis[[3-(3,4-dihydroxyphenyl)-1-oxo-2-propenyl]oxy]-1,5-dihydroxy-cyclohexanecarboxylic acid]
Intensity Score (sour taste-masking effect) [1]: 8
Intensity Score (bitter taste-masking effect) [2]: 2
bitter taste-masking effect (in words) [2]: particularly intense and lasting bitter taste-masking effect

O=C(/C=C/c1ccc(O)c(O)c1)O[C@H]1[C@H](O)C[C@](O)(C(=O)O)C[C@H]1OC(=O)/C=C/c1ccc(O)c(O)c1 [Formula VI, (1R,3R,4S,5R)-3,4-bis[[3-(3,4-dihydroxyphenyl)-1-oxo-2-propen-1-yl]oxy]-1,5-dihydroxy-cyclohexanecarboxylic acid]
Intensity Score (sour taste-masking effect) [1]: 8
Intensity Score (bitter taste-masking effect) [2]: 2
bitter taste-masking effect (in words) [2]: particularly intense and lasting bitter taste-masking effect
